Experimental data from PubChem BioAssay (NCI).
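Results reflect a 48-hour exposure of cells in 96-well plates to compound at five concentrations. At the TGI there is no net growth.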

How the values were obtained:
Test in all cases: growth of human tumour cells (NCI), 48 h
A498 renal = system: A498 renal
A549 NSCLC = system: A549 NSCLC
ACHN renal = system: ACHN renal
BT-549 breast = system: BT-549 breast
CAKI-1 renal = system: CAKI-1 renal
CCRF-CEM leukemia = system: CCRF-CEM leukemia
COLO 205 colon = system: COLO 205 colon
DU-145 prostate = system: DU-145 prostate
EKVX NSCLC = system: EKVX NSCLC
HCC-2998 colon = system: HCC-2998 colon
HCT-15 colon = system: HCT-15 colon
HL-60(TB) leukemia = system: HL-60(TB) leukemia
HOP-62 NSCLC = system: HOP-62 NSCLC
HOP-92 NSCLC = system: HOP-92 NSCLC
HS 578T breast = system: HS 578T breast
HT29 colon = system: HT29 colon
IGROV1 ovarian = system: IGROV1 ovarian
K-562 leukemia = system: K-562 leukemia
KM12 colon = system: KM12 colon
LOX IMVI melanoma = system: LOX IMVI melanoma
M14 melanoma = system: M14 melanoma
MALME-3M melanoma = system: MALME-3M melanoma
MCF7 breast = system: MCF7 breast
MDA-MB-231 breast = system: MDA-MB-231 breast
MDA-MB-435 = system: MDA-MB-435
MDA-N = system: MDA-N
MOLT-4 leukemia = system: MOLT-4 leukemia
NCI-H226 lung = system: NCI-H226 lung
NCI-H460 lung = system: NCI-H460 lung
NCI-H522 lung = system: NCI-H522 lung
NCI/ADR-RES ovarian = system: NCI/ADR-RES ovarian
OVCAR-3 ovarian = system: OVCAR-3 ovarian
OVCAR-4 ovarian = system: OVCAR-4 ovarian
OVCAR-5 ovarian = system: OVCAR-5 ovarian
OVCAR-8 ovarian = system: OVCAR-8 ovarian
PC-3 prostate = system: PC-3 prostate
RPMI-8226 leukemia = system: RPMI-8226 leukemia
RXF 393 renal = system: RXF 393 renal
SF-268 CNS = system: SF-268 CNS
SF-539 CNS = system: SF-539 CNS
SK-MEL-2 melanoma = system: SK-MEL-2 melanoma
SK-MEL-28 melanoma = system: SK-MEL-28 melanoma
SK-MEL-5 melanoma = system: SK-MEL-5 melanoma
SN12C renal = system: SN12C renal
SNB-19 CNS = system: SNB-19 CNS
SNB-75 CNS = system: SNB-75 CNS
SW-620 colon = system: SW-620 colon
T-47D breast = system: T-47D breast
TK-10 renal = system: TK-10 renal
U251 CNS = system: U251 CNS
UACC-257 melanoma = system: UACC-257 melanoma
UO-31 renal = system: UO-31 renal
786-0 renal = system: 786-0 renal
HCT-116 colon = system: HCT-116 colon
NCI-H23 lung = system: NCI-H23 lung
SF-295 CNS = system: SF-295 CNS
SK-OV-3 ovarian = system: SK-OV-3 ovarian
UACC-62 melanoma = system: UACC-62 melanoma

Measured: TGI

CCOP(=O)(C/C=C/Cn1ncc(=O)[nH]c1=O)OCC
not listed: 786-0 renal | HCT-116 colon | NCI-H23 lung | SF-295 CNS | SK-OV-3 ovarian | UACC-62 melanoma
> 100 µM: all other assays above

O/N=C(\CC(O)(C(F)(F)F)C(F)(F)F)c1cccs1
> 10 µM: all assays above
